Source: patent US20260098072A1, “METHODS OF STIMULATING APPETITE AND/OR INCREASING BODY WEIGHT USING NON-NATURALLY OCCURRING MELANOCORTIN RECEPTOR ANTAGONIST ANALOGS” (Endevica Bio, Inc., priority 2022, published 2026)
“Also recorded” adds a separate entry of the source. One block for each molecule: values may come before it. Positions of bridges follow the written chain, without caps; N, C: chain ends. Non-standard residues stand in square brackets, D forms with d. Residues, ends and D or L forms follow the SMILES beside them. No end group written: not given here. d2Nal = N[C@H](Cc1ccc2ccccc2c1)C(=O)O; Nle = CCCC[C@H](N)C(=O)O

Tests used:
[1] = test system: urethane-anesthetized rats; assay: Cardiovascular effects (MAP, heart rate, ECG) in urethane-anesthetized rats
Method: These studies were performed in urethane-anesthetized rats, since anesthesia is required for six-lead ECG monitoring. […] Initial selection of doses was guided by FDA exploratory IND studies with a recommendation for at least a 100-fold excess of the human dose.

[2] = test system: LPS model of cachexia; assay: LPS-induced cachexia assay in rats; type: in vivo, rat; details: for peripheral (IP) anti-cachexia activity / blood-brain barrier transport: peripheral administration
Method: The LPS model uses rats were maintained on a 12 h light/dark schedule with ad libitum access to food and water. Animals were handled daily for a minimum of three consecutive days to decrease non-specific handling stress. On the day of the experiment, individually housed animals received intraperitoneal injections of LPS dissolved in 0.5% low-endotoxin BSA, 0.9% saline or 0.5% BSA in 0.9% saline alone, and were returned to their home cage. The drug or control was administered (ICV, IP, or PO, depending on the type of study) 1-hour after LPS injection.
In the experiments performed in accordance with the present technology, a series of melanocortin receptor antagonist peptides were examined in a bacterial endotoxin inducing cachexia assay. For this assay, a rat is challenged with a single peripheral injection of lipopolysaccharide (LPS). LPS is a heat-stable lipo-polysaccharide, the major component of the outer membrane (capsule) of gram negative bacteria. In non-capsulated strains, it appears as a cell surface protein. LPS produces a strong immune response, including secretion of the proinflammatory cytokines Tumor Necrosis Factor α (TNFα) and interleukin-1 (IL-1). Proinflammatory cytokines are known factors that induce cachexia.
Rats are maintained on a 12-hour light/dark cycle. Animals are handled daily for a minimum of 5 consecutive days to acclimate them to the handling required for the experiment. […] On the day of the experiment, individually housed animals receive intraperitoneal (IP) injections of LPS dissolved in 0.5% low-endotoxin BSA, 0.9% saline or 0.5% BSA in 0.9% saline alone, and returned in their home cage. Melanocortin receptor antagonist peptides were administered (IP or by gavage, depending on the type of study) one hour after the LPS injection. The extent of cachexia is measured by the reduction in food intake, measured every two hours. The cachexia typically lasts only a single day. However, rats lose up to 5% of their body weight during a 12-hour light cycle, making up this loss plus food needed for normal growth during the 12-hour dark cycle. Thus, failure to eat appropriately during a single dark cycle is determinable from the animal's weight and any changes thereof.
A series of melanocortin receptor antagonist peptides were examined in a bacterial toxin inducing cachexia assay. In this assay, a rat was challenged with a single peripheral injection of lipopolysaccharide (LPS), a bacterial toxin that rapidly induces acute cachexia. The extent of cachexia was measured as a reduction in food intake, measured every two hours. The cachexia typically lasts only a single day.

[3] = biological target: human melanocortin 3 receptor (MC3R) (human, UniProt P41968 1-323); assay: cell-based or functional assay
[4] = biological target: human melanocortin 4 receptor (MC4R) (human, UniProt P32245 1-332); assay: cell-based or functional assay
Chain of human melanocortin 4 receptor (MC4R) (P32245 whole entry): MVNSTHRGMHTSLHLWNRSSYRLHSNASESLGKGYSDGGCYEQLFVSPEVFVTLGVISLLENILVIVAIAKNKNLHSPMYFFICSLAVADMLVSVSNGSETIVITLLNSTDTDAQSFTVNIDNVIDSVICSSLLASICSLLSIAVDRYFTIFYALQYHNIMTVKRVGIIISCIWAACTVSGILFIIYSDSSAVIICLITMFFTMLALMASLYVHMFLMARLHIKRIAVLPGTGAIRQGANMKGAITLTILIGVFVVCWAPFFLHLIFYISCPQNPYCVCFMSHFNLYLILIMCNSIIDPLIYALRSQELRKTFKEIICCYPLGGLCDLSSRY

Chain of human melanocortin 3 receptor (MC3R) (P41968 whole entry): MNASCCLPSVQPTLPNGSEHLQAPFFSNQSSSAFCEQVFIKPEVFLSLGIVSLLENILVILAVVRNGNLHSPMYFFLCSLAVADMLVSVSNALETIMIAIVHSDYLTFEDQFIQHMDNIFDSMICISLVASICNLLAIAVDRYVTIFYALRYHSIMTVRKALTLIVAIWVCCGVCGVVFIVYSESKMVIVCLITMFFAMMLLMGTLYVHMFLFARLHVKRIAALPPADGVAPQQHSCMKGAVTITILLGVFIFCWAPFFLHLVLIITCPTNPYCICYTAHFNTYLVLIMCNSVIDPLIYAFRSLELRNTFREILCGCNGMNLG

Molecule: CCCC[C@H](NC(C)=O)C(=O)N[C@H]1CC(=O)NCCCC[C@@H](C(=O)O)NC(=O)[C@H](Cc2c[nH]c3ccccc23)NC(=O)[C@H](CCCN=C(N)N)NC(=O)[C@@H](Cc2ccccc2)NC(=O)[C@H](Cc2cnc[nH]2)NC1=O [Bremelanotide (PT-141), Ac-Nle-c[Asp-His-DPhe-Arg-Trp-Lys]-COOH]
- Duration ([1]; 250 nmol): 140 ± 53 min
- Peak Heart Rate Response (BPM) ([1]; 250 nmol): 44 ± 6 BPM
- Peak MAP Response (Δ mm Hg) ([1]; 250 nmol): 32 ± 6 mm Hg
- MAP after lethal dose ([1]; 900 nmol/kg IV, baseline MAP 80 mmHg): 140 mmHg
- lethal dose ([1]; IV): 900 nmol/kg
- ECG tracing (lead 2) ([1]; IV 600 nmol/kg): inverted P-wave

Molecule: CCCC[C@H](NC(=O)[C@H](Cc1ccc(O)cc1)NC(=O)[C@H](CO)NC(C)=O)C(=O)N[C@@H](CCC(=O)O)C(=O)N[C@@H](Cc1c[nH]cn1)C(=O)N[C@H](Cc1ccccc1)C(=O)N[C@@H](CCCNC(=N)N)C(=O)N[C@@H](Cc1c[nH]c2ccccc12)C(=O)NCC(=O)N[C@@H](CCCCN)C(=O)N1CCC[C@H]1C(=O)N[C@H](C(N)=O)C(C)C [MT-I, Ac-Ser-Tyr-Nle-Glu-His-DPhe-Arg-Trp-Gly-Lys-Pro-Val-NH2] (Ac-SY[Nle]EH[dF]RWGKPV-NH2)
- Duration ([1]; 250 nmol): 0 min
- Peak Heart Rate Response (BPM) ([1]; 250 nmol): 0/0 BPM
- Peak MAP Response (Δ mm Hg) ([1]; 250 nmol): 0/0 mm Hg

Molecule: O=C(N[C@H](Cc1ccc(Cl)cc1)C(=O)N1CCC(Cn2cncn2)(C2CCCCC2)CC1)[C@H]1Cc2ccccc2CN1 [THIQ, N-[(3R)-1,2,3,4-tetrahydroisoquinolinium-3-ylcarbonyl]-(1R)-1-(4-chlorobenzyl)-2-[4-cyclohexyl-4-(1H-1,2,4-triazol-1-ylmethyl)piperidin-1-yl]-2-oxoethylamine]
- Duration ([1]; 300 nmol): 19 ± 4 min
- Peak Heart Rate Response (BPM) ([1]; 300 nmol): 81 ± 09 BPM
- Peak MAP Response (Δ mm Hg) ([1]; 300 nmol): 22 ± 11 mm Hg

Molecule: Ac-Nle-c[Asp-His-DNal(2′)-Arg-Trp-Lys]-DPro-DVal-NH2 (Ac-[Nle]DH[d2Nal]RWK[dP][dV]-NH2; lactam 2-7; SMILES CCCC[C@H](NC(C)=O)C(=O)N[C@H]1CC(=O)NCCCC[C@@H](C(=O)N2CCC[C@@H]2C(=O)N[C@@H](C(N)=O)C(C)C)NC(=O)[C@H](Cc2c[nH]c3ccccc23)NC(=O)[C@H](CCCNC(=N)N)NC(=O)[C@@H](Cc2ccc3ccccc3c2)NC(=O)[C@H](Cc2c[nH]cn2)NC1=O) [TCMCB03]
- anti-cachectic activity after ICV administration [2]: enhanced anti-cachexia; also recorded: superior anti-cachexia activity following ICV administration
- peripheral (IP) anti-cachexia activity / blood-brain barrier transport [2]: failed to cross the blood brain barrier; also recorded: did not possess as good peripheral (intraperitoneal/IP administration) anti-cachexia activity

Molecule: Ac-Nle-c[Asp-Pro-DNal(2′)-Arg-Trp-Lys]-DVal-DPro (Ac-[Nle]DP[d2Nal]RWK[dV][dP]; lactam 2-7) [TCMCB07A]
- peripheral (IP) anti-cachexia activity / blood-brain barrier transport [2]: equivalent stimulation of feeding

Molecule: Ac-Nle-c[Asp-Pro-DNal(2′)-Arg-Trp-Lys]-β^2Val-β^3Pro-NH2 [TCMCB08]
- oral activity / gastrointestinal transport ([2]; gavage (intra-gastric)): no gastrointestinal transport; also recorded: not as much oral activity as TCMCB07
- peripheral (IP) anti-cachexia activity / blood-brain barrier transport [2]: has peripheral activity; also recorded: good blood-brain barrier transport

Molecule: Ac-Nle-c[Asp-Pro-DNal(2′)-Arg-Trp-Lys]-β^3Pro-β^3Pro-NH2 [TCMCB10]
- anti-cachectic activity after ICV administration [2]: maintaining direct inhibitory effects
- peripheral (IP) anti-cachexia activity / blood-brain barrier transport [2]: showed no peripheral activity

Molecule: Ac-Nle-c[Asp-Pro-DNal(2′)-Arg-Trp-Lys]-β^3Pro-β^3Val-NH2 [TCMCB06]
- food intake and body weight, 24-hours ([2]; 0.2 mg/kg intraperitoneally): ate less food than the other non-naturally occurring melanocortin analogs, and had no weight gain
- anti-cachectic activity after ICV administration [2]: molar activity equivalent to TCMCB02
- molar activity relative to TCMCB02 ([2]; ICV-administration): 10 fold

Molecule: Ac-Nle-c[Asp-Pro-DNal(2′)-Arg-Trp-Lys]-β^3Val-β^3Pro-NH2 [TCMCB09]
- peripheral (IP) anti-cachexia activity / blood-brain barrier transport [2]: inactive peripherally

Molecule: Ac-Nle-c[D-Asp-Pro-DNal(2′)-Arg-Trp-DLys]-DPro-DVal-NH2 (Ac-[Nle][dD]P[d2Nal]RW[dK][dP][dV]-NH2; lactam 2-7) [TCMCB04]
- anti-cachectic activity after ICV administration [2]: superior anti-cachectic activity compared to the parent compound
- peripheral (IP) anti-cachexia activity / blood-brain barrier transport [2]: No difference was observed between the non-naturally occurring melanocortin analog and saline; also recorded: eliminated blood brain barrier transport

- IC50 (cAMP by HTRF, antagonist dose-response) [3]: 43.4 nM
- Max Activation % [3]: 112%
- IC50 (cAMP by HTRF, antagonist dose-response) [4]: 26.9 nM
- Max Activation % [4]: 118%
Molecule: Ac-[Nle]DP[d2Nal]RWK[dV][dP]-NH2 (lactam 2-7) [TCMCB07]

- IC50 (cAMP by HTRF, antagonist dose-response) [3]: 1360 nM
- Max Activation % [3]: 101%
- IC50 (cAMP by HTRF, antagonist dose-response) [4]: 57.1 nM
- Max Activation % [4]: 120%
B1: TCMCB02 (peptide)
peptide: Ac-[Nle]DP[d2Nal]RWK[dP][dV]-NH2
modifications: lactam 2-7
SMILES: CCCC[C@H](NC(C)=O)C(=O)N[C@H]1CC(=O)NCCCC[C@@H](C(=O)N2CCC[C@@H]2C(=O)N[C@@H](C(N)=O)C(C)C)NC(=O)[C@H](Cc2c[nH]c3ccccc23)NC(=O)[C@H](CCCNC(=N)N)NC(=O)[C@@H](Cc2ccc3ccccc3c2)NC(=O)[C@@H]2CCCN2C1=O

- Max Activation % [3]: 6.86%
- Max Activation % [4]: 12.7%
B2: B1 (peptide)
peptide: Ac-[Nle]DPFFRWK[dV][dP]-NH2
modifications: lactam 2-8
SMILES: CCCC[C@H](NC(C)=O)C(=O)N[C@H]1CC(=O)NCCCC[C@@H](C(=O)N[C@@H](C(=O)N2CCC[C@@H]2C(N)=O)C(C)C)NC(=O)[C@H](Cc2c[nH]c3ccccc23)NC(=O)[C@H](CCCNC(=N)N)NC(=O)[C@H](Cc2ccccc2)NC(=O)[C@H](Cc2ccccc2)NC(=O)[C@@H]2CCCN2C1=O

- Max Activation % [3]: 10.3%
- Max Activation % [4]: 35.5%
B3: B2 (peptide)
peptide: Ac-LDPFFRWKVP-NH2
modifications: lactam 2-8
SMILES: CC(=O)N[C@@H](CC(C)C)C(=O)N[C@H]1CC(=O)NCCCC[C@@H](C(=O)N[C@H](C(=O)N2CCC[C@H]2C(N)=O)C(C)C)NC(=O)[C@H](Cc2c[nH]c3ccccc23)NC(=O)[C@H](CCCNC(=N)N)NC(=O)[C@H](Cc2ccccc2)NC(=O)[C@H](Cc2ccccc2)NC(=O)[C@@H]2CCCN2C1=O

- IC50 (cAMP by HTRF, antagonist dose-response) [3]: 3660 nM
- Max Activation % [3]: 84.4%
- IC50 (cAMP by HTRF, antagonist dose-response) [4]: 3610 nM
- Max Activation % [4]: 79.3%
B4: A1 (peptide)
peptide: Ac-[Nle]DP[d2Nal]RWK[dV][dP]-NH2
SMILES: CCCC[C@H](NC(C)=O)C(=O)N[C@@H](CC(=O)O)C(=O)N1CCC[C@H]1C(=O)N[C@H](Cc1ccc2ccccc2c1)C(=O)N[C@@H](CCCNC(=N)N)C(=O)N[C@@H](Cc1c[nH]c2ccccc12)C(=O)N[C@@H](CCCCN)C(=O)N[C@@H](C(=O)N1CCC[C@@H]1C(N)=O)C(C)C

- IC50 (cAMP by HTRF, antagonist dose-response) [3]: > 10000 nM
- Max Activation % [3]: 24.6%
- Max Activation % [4]: 41.5%
B5: D5 (peptide)
peptide: Ac-[Nle]DPH[d2Nal]RWK[dP][dV]-NH2
modifications: lactam 2-8
SMILES: CCCC[C@H](NC(C)=O)C(=O)N[C@H]1CC(=O)NCCCC[C@@H](C(=O)N2CCC[C@@H]2C(=O)N[C@@H](C(N)=O)C(C)C)NC(=O)[C@H](Cc2c[nH]c3ccccc23)NC(=O)[C@H](CCCNC(=N)N)NC(=O)[C@@H](Cc2ccc3ccccc3c2)NC(=O)[C@H](Cc2c[nH]cn2)NC(=O)[C@@H]2CCCN2C1=O

- Max Activation % [3]: 7.81%
- Max Activation % [4]: 16.1%
Molecule: LPFFRWVP [B4]

- Max Activation % [3]: 0.83%
- Max Activation % [4]: 4.41%
Molecule: LDPFFRWKVP (lactam 2-8) [B3]
